Key:
168 GPCRs [1] = target: T1, 168 GPCRs (Homo sapiens, UniProt P32247); assay: β-arrestin GPCR screen (PathHunter/GPCRmax), agonist mode; assay type: cell-based; details: BRS3; Agonist; 1 uM
T1 construct: host or cells: PathHunter cell lines
Procedure: (§1) For agonist determination, cells were incubated with sample to induce response. […] Vehicle concentration was 1%.

168 GPCRs [2] = target: T2, 168 GPCRs (Homo sapiens, UniProt P32238); assay: as above; assay type: cell-based; details: CCKAR; Agonist; 10 uM
T2 construct: host or cells: PathHunter cell lines
Procedure: as §1

168 GPCRs [3] = target: T3, 168 GPCRs (Homo sapiens, UniProt P51679); assay: as above; assay type: cell-based; details: CCR4; Agonist; 10 uM
T3 construct: host or cells: PathHunter cell lines
Procedure: as §1

168 GPCRs [4] = target: T4, 168 GPCRs (Homo sapiens, UniProt P25116); assay: as above; assay type: cell-based; details: F2R; Agonist; 1 uM
T4 construct: host or cells: PathHunter cell lines
Procedure: as §1

168 GPCRs [5] = target: T5, 168 GPCRs (Homo sapiens, UniProt Q96LB1); assay: as above; assay type: cell-based; details: GPCR MRGPRX2; Agonist mode; 10 uM
T5 construct: host or cells: PathHunter cell lines
Procedure: as §1

168 GPCRs [6] = target: T6, 168 GPCRs (Homo sapiens, UniProt Q16602); assay: as above; assay type: cell-based; details: CALCRL-RAMP3; Agonist; 10 uM
T6 construct: host or cells: PathHunter cell lines
Procedure: as §1

168 GPCRs [7] = target: T7, 168 GPCRs (Homo sapiens, UniProt P11229); assay: as above; assay type: cell-based; details: CHRM1, Agonist
T7 construct: host or cells: PathHunter cell lines
Procedure: as §1

168 GPCRs [8] = target: T8, 168 GPCRs (Homo sapiens, UniProt P48145); assay: as above; assay type: cell-based; details: GPCR NPBWR1; Agonist mode; 10 uM
T8 construct: host or cells: PathHunter cell lines
Procedure: as §1

168 GPCRs [9] = target: T9, 168 GPCRs (Homo sapiens, UniProt P21917); assay: as above; assay type: cell-based; details: GPCR DRD4; Agonist mode; 10 uM
T9 construct: host or cells: PathHunter cell lines
Procedure: as §1

168 GPCRs [10] = target: T10, 168 GPCRs (Homo sapiens, UniProt P25025); assay: as above; assay type: cell-based; details: GPCR CXCR2; Agonist mode; 10 uM
T10 construct: host or cells: PathHunter cell lines
Procedure: as §1

168 GPCRs [11] = target: T11, 168 GPCRs (Homo sapiens, UniProt O95977); assay: as above; assay type: cell-based; details: GPCR EDG6; Agonist mode; 10 uM
T11 construct: host or cells: PathHunter cell lines
Procedure: as §1

168 GPCRs [12] = target: T12, 168 GPCRs (Homo sapiens, UniProt P51582); assay: as above; assay type: cell-based
T12 construct: host or cells: PathHunter cell lines
Procedure: as §1

168 GPCRs [13] = target: T13, 168 GPCRs (Homo sapiens, UniProt P28222); assay: as above; assay type: cell-based
T13 construct: host or cells: PathHunter cell lines
Procedure: as §1

168 GPCRs [14] = target: T14, 168 GPCRs (Homo sapiens, UniProt P33032); assay: as above; assay type: cell-based
T14 construct: host or cells: PathHunter cell lines
Procedure: as §1

[15] = target: T15, serotonin transporter (SERT) (Rattus norvegicus, UniProt P31652); assay: Competitive radioligand binding, [3H]citalopram, rat brain lysates
T15 construct: from tissue; synaptosomes for uptake and release
Procedure: (§2) Radioligands used were: [^3H] Citalopram (PerkinElmer NET1039250UC); [^3H] Nisoxetine (PerkinElmer NET1084250UC); [^3H] WIN35428 (PerkinElmer NET1033250UC). […] Rat brains were dissected and tissue was homogenized in cold lysis buffer, centrifged at 100×g for 2 min and the supernatant was placed in a fresh tube. Supernatant was centrifuged at 13,000×g for 10 min at 4° C. to re-pellet the cell lysate. The pellet was resuspended in fresh wash buffer (50 mM Tris-HCl; 5 mM MgCl2; 5 mM EDTA) and centrifuged a third time. The pellet was then resuspended in wash buffer containing 10% sucrose as a cryoprotectant, divided into aliquots (0.3 mL) and stored at −80° C. A sample of the homogenate was analyzed for protein content using the SIGMA® BCA assay. On the day of the assay, the membrane preparation was thawed, and the pellet resuspended in final assay buffer. […] To each well was added 150 μL membranes, 50 μL of non-specific compound or buffer and 50 μL radioligand solution in buffer. […] Ki was subsequently calculated using the Cheng-Prusoff equation.

C57BL/6J mice = assay: Head-twitch response (HTR) test; assay type: in vivo, mouse; details: i.p., HTR measured for 10 minutes, any dose tested
Procedure: Head twitch response (HTR) was evaluated using C57BL/6J mice (ages 7-10 weeks). Mice were ear tagged at least three days after arrival to the animal facility and allowed to rest for at least three days before behavioral testing. Small magnets (SuperMagnetMan-N45 magnet 3 mm diameter, 0.5 mm thickness) were glued to ear tags (Stoelting-La Pias Aluminum Ear Tags) at least two days before mice were ear tagged. The experimental setup was adapted from Gonzales-Maeso (de la Fuente Revenga et al., 2019) and Kwan (Jefferson et al., 2022; Savalia et al., 2021), including experimental apparatus and MATLAB code for analysis.
Doses were randomly assigned, and age-matched controls were injected with vehicle and randomly interspersed with drug conditions. At least three animals per sex were used for each drug dose and condition. If animals were used in multiple HTR experiments, experimental sessions took place at least one week apart. Two animals were run at a time. Immediately after i.p. injection of psychedelic or entactogen drug, animals were placed in separate plastic boxes within a larger chamber (Home Depot-28 in. W×32 in. H x 21.5 in. D), and HTR was measured for 10 minutes. A small lamp was placed in the back of the larger chamber, and a high-speed camera (Basler-Aca 1920-155 μm) was suspended from the ceiling to record video of the animals in the plastic boxes. […]

[16] = system: myelin basic protein (MBP) in the amygdala; assay: Immunohistochemistry of myelin basic protein; assay type: in vivo, rat; details: 10 mg/kg IP, single dose, 24 h
Procedure: Immunohistochemistry: The in-life portion of the study was conducted at WuXi Apptec (Cranbury, NJ). Sectioning and staining of brains took place at Neuroscience Associates (NSA, Knoxville, TN). […] Brains were post-fixed in PFA before shipment to NSA for processing and staining. Hemisected brains were mounted, sectioned and stained using standard protocols with myelin-basic protein primary antibody (MBP SMI-99, 1:5000, Biolegend, San Diego, CA) and anti-mouse biotinylated secondary antibody (BA-2001, Vector Laboratories, Newark, CA). Slides were imaged using a Huron Digital Pathology TissueScope LE120 whole slide scanning system. 20× objective was used with a 0.4 μm/pixel resolution.

[17] = target: T16, dopamine transporter (DAT) (Rattus norvegicus, UniProt P23977); assay: Competitive radioligand binding, [3H]WIN35428, rat brain lysates
T16 construct: from tissue; synaptosomes for uptake and release
Procedure: as §2

T7 sequence (P11229 whole entry): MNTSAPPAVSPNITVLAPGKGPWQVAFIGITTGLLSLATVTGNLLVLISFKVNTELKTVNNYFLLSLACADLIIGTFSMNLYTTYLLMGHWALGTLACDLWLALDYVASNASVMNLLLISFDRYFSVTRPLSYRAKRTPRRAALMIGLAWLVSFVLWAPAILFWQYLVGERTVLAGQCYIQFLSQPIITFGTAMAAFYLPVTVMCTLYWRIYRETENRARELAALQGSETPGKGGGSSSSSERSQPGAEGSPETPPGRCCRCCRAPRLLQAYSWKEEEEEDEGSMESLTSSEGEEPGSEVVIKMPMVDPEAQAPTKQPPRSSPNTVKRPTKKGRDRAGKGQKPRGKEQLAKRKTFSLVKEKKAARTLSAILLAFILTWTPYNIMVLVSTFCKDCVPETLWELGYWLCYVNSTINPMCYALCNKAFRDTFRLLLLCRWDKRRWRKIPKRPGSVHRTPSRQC
T14 sequence (P33032 whole entry): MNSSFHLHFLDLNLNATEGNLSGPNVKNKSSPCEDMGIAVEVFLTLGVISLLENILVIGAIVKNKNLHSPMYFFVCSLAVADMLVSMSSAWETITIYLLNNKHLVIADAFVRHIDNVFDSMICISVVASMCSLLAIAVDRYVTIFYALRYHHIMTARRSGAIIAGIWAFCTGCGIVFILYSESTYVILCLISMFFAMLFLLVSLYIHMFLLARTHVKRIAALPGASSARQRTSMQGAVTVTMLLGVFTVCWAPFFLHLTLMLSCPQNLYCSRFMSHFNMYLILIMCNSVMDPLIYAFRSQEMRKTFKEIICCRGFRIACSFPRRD
T12 sequence (P51582 whole entry): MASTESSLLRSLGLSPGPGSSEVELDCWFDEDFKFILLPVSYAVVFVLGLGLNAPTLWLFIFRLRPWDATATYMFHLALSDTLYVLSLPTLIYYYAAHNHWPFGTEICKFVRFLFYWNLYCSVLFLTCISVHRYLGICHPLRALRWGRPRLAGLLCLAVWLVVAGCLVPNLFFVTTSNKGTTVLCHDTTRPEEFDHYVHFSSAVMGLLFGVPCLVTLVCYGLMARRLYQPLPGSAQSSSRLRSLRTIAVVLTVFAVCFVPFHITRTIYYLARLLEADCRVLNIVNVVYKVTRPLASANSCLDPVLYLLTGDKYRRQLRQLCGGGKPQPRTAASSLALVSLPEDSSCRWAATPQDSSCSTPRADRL
T13 sequence (P28222 whole entry): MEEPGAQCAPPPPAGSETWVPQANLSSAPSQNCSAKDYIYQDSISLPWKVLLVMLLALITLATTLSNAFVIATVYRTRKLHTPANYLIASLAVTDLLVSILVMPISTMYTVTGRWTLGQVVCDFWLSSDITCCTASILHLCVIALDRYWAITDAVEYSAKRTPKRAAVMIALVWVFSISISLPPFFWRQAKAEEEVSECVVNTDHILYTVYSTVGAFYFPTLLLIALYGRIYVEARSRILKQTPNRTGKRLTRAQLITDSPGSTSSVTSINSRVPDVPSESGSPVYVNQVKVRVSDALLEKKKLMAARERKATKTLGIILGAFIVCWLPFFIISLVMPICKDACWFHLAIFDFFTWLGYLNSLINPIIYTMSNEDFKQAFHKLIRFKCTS
T2 sequence (P32238 whole entry): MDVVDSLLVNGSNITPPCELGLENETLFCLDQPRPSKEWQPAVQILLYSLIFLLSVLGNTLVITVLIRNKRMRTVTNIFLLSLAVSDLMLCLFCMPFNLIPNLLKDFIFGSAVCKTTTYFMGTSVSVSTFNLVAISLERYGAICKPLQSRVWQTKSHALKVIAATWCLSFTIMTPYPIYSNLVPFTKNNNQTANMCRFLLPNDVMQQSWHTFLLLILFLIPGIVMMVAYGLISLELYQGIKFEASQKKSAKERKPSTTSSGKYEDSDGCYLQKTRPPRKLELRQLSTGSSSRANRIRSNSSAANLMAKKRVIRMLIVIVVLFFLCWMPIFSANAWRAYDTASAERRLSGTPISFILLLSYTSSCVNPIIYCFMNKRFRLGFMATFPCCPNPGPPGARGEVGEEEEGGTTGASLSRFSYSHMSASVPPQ
T11 sequence (O95977 whole entry): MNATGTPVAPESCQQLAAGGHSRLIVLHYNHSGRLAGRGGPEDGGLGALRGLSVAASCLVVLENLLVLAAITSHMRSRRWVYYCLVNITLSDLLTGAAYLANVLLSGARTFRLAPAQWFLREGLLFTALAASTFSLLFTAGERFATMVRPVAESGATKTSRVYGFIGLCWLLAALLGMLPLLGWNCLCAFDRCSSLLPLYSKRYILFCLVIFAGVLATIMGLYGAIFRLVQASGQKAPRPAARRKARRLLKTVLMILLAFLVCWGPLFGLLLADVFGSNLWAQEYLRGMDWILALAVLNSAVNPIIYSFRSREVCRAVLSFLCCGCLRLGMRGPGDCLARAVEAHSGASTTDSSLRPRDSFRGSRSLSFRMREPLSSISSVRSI
T5 sequence (Q96LB1 whole entry): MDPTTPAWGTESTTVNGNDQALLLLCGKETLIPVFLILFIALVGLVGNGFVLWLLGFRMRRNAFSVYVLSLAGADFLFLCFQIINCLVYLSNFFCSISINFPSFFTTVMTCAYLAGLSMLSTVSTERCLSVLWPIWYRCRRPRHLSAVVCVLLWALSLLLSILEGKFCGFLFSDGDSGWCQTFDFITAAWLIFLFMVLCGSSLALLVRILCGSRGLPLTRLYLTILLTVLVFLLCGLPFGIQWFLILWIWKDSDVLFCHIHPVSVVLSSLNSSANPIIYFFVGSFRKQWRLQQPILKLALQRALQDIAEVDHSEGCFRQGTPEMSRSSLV
T10 sequence (P25025 whole entry): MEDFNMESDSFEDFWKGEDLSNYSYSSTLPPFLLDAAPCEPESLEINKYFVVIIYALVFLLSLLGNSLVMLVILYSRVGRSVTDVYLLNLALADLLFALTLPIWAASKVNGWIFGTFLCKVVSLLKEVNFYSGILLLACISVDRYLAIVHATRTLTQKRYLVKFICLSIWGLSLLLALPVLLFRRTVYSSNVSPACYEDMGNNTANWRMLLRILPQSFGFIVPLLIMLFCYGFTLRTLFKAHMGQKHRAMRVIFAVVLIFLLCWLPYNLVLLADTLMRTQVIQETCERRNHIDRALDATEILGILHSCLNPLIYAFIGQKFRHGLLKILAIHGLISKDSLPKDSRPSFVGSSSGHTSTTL
T3 sequence (P51679 whole entry): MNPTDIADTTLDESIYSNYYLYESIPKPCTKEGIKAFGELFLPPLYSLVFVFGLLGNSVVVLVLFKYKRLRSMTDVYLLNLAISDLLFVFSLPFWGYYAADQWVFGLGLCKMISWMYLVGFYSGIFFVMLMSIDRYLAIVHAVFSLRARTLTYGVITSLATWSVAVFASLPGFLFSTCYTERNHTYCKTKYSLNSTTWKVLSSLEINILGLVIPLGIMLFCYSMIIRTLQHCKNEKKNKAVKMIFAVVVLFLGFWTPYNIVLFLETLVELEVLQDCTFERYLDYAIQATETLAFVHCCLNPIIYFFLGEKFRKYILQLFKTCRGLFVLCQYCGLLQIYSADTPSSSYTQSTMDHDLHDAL
T16 sequence (P23977 whole entry): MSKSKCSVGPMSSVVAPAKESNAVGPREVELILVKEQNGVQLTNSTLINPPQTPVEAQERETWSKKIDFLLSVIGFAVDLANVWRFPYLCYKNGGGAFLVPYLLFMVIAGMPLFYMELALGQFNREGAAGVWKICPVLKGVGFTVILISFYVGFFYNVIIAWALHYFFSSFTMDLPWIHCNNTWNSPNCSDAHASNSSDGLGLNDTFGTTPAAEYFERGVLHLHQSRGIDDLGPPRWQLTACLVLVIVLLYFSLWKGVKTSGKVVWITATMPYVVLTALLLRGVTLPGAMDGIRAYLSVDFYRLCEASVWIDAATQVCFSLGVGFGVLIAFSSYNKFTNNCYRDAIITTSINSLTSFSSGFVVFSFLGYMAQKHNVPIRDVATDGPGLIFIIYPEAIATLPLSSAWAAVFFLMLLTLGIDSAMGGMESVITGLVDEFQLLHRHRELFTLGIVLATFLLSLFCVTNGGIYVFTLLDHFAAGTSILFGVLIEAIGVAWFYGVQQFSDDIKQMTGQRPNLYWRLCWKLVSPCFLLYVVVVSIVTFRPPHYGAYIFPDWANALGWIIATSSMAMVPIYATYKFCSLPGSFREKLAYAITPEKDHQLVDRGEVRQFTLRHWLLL
T6 sequence (Q16602 23-461): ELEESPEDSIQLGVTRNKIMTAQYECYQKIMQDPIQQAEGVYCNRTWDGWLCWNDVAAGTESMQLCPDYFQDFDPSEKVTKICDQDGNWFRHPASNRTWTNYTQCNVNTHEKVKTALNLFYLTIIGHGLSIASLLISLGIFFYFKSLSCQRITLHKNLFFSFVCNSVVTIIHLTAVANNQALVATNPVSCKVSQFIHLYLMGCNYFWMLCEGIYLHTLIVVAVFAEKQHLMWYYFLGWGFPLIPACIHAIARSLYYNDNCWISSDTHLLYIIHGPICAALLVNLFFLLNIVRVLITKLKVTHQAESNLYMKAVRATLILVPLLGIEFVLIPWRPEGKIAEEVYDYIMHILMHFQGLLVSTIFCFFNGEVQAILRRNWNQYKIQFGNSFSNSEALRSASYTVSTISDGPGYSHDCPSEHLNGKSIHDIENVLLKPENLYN
T9 sequence (P21917 whole entry): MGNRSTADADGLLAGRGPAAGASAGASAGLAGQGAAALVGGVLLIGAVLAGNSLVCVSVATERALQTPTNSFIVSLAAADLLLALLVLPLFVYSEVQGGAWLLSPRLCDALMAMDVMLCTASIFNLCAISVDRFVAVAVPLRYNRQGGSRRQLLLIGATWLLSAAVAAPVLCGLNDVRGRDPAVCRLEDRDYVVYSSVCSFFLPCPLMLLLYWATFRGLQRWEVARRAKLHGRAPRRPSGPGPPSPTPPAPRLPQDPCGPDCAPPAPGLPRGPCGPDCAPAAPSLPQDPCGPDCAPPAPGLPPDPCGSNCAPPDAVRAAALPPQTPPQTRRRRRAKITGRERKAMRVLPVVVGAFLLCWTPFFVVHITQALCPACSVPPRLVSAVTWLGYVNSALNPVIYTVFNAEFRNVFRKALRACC

CNC(C)C(=O)c1ccc2c(c1)OCO2 (stereo not shown) [methylone, 3,4-methylenedioxy-N-methylcathinone]
activity at 1 µM (168 GPCRs [1]): -4.5% | activity at 10 µM (168 GPCRs [2]): -0.3% | activity at 10 µM (168 GPCRs [3]): -1.4% | activity at 1 µM (168 GPCRs [4]): -2.5% | activity at 10 µM (168 GPCRs [5]): 0.7% | activity at 10 µM (168 GPCRs [6]): -2.2% | activity at 1 µM (168 GPCRs [7]; 1 uM): -3.1% | activity at 10 µM (168 GPCRs [7]; 10 uM): -8.5% | activity at 10 µM (168 GPCRs [8]): ~-1% | activity at 10 µM (168 GPCRs [9]): -9.4% | activity at 10 µM (168 GPCRs [10]): -2.6% | activity at 10 µM (168 GPCRs [11]): -0.3% | activity at 10 µM (168 GPCRs [12]; GPCR P2RY4, Agonist mode, 10 uM): -4.1% | activity at 1 µM (168 GPCRs [12]; P2RY4, Agonist, 1 uM): ~-3% | activity at 10 µM (168 GPCRs [13]; GPCR HTR1B, Agonist mode, 10 uM): 8.7% | activity at 1 µM (168 GPCRs [13]; HTR1B, Agonist, 1 uM): ~3% | activity at 10 µM (168 GPCRs [14]; GPCR MC5R, Agonist mode, 10 uM): -8.9% | activity at 1 µM (168 GPCRs [14]; MC5R, Agonist, 1 uM): ~-7% | Ki [15]: 4.15 µM | head-twitch behaviors (C57BL/6J mice): no effect on head-twitch behaviors at any dose tested | MBP level in basolateral and central nuclei of the amygdala vs vehicle [16]: significant reduction in MBP | Ki [17]: 5.73 µM

Source: patent US20250332139A1, “PS[…] AND THEIR USE FOR TREATING […] AND NE[…] DISORDERS” (Transcend Therapeutics, Inc., priority 2021, published 2025)
